Source: patent US8957087B2, “Heterocyclic substituted acardite derivate and application thereof” (Jiangsu Provincial Institute of Materia Medica Co., Ltd., priority 2009, dated 2015)
Where two headings read alike, the source gives them in different places.

Columns and labels:
[1] = system: human lung cancer cell strain A549; assay: MTT assay, inhibition of growth of human lung cancer cell strain A549; type: cell-based
Procedure: 4. Using 3-(4,5-dimethylthiazol-2-yl)-2,5-diphenyl tetrazolium bromide assay (MTT) to detect the inhibition effects on the growth of human lung cancer cell strain A549
[Test materials] MTT working solution, F12 medium containing 10% FBS, continuous injectors
(§1) [Tested compound] Compounds 1-38
(§2) [Positive control medicine] Sorafenib, compounds A′, B′, C′ with no substituent or only amino formyl in A ring
The inhibition rate is calculated as follows:
(§3) Relative OD value of conrol well=OD value of control well−OD value of blank well
(§4) Relative OD value of drug well=OD value of drug well−OD value of blank well

[2] = system: human high-metastic lung cancer cell 95D; assay: Inhibition of human high-metastic lung cancer cell 95D migration (Boyden Chamber Transwell); type: cell-based; conditions: Final concentration 1 x 1.0*10^(−5) mol/L
Procedure: 5 Inhibition effects of compounds on human high-metastic lung cancer cell 95D migration
[Test materials] Boyden Chamber Transwell chamber (with pore size of 8 μm), human high-metastic lung cancer cell 95D cell strain, 1640 medium containing 10% FBS, 1640 medium containing no serum
as §1, §2
(§5) The inhibition rate is calculated as follows: […]

[3] = system: human umbilical vein endothelial cell HUVEC; assay: Growth of human umbilical vein endothelial cell HUVEC by CCK8 method; type: cell-based; conditions: Final concentration 1 x 1.0*10^(−5) mol/L
Text: 7. Effects of tested compounds on the growth of human umbilical vein endothelial cell HUVEC cell by CCK8 method
[Test materials] CCK8, human umbilical vein endothelial cell HUVEC cell, 1640 medium containing 10% FBS
(§6) [Tested compound] Compounds 1-38 to be tested
as §2, §3, §4

[4] = system: renal carcinoma cell line GCR-1 transplanted tumor; type: in vivo, BALB/cA nude mice; conditions: BALB/cA nude mice; 60 mg/kg, 6 times every week for 3 weeks; Sorafenib oral 60 mg/kg
Procedure: 11. Tumor inhibition rate of medicines on renal carcinoma cell line GCR-1 transplanted tumor model in nude mice
(§7) [Test animals] female BALB/cA nude mice, 35-40 days old, with weight of 18-22g. There were 12 mice in the negative conrol group and 6 mice in the treatment group.
[Test method] […] The dosage of the medicine was 60 mg/kg, 6 times every week for 3 weeks. […] Equal amount of normal saline was administrated in the negative control group. Observe for one week after administration.

[5] = system: Human colon cancer HT-29 transplantable tumor; assay: Human colon cancer HT-29 transplantable tumor in nude mice; conditions: HT-29 in nude mice, 60 mg/kg ig 9 times
Procedure: Experimental therapeutic action of the compound in the present invention on Human colon cancer HT-29 transplantable tumor in nude mice.
Take eugenic tumor tissues and cut into about 1.5 mm^3, and then incoculate subcutaneously at the right armpit of nude mice under the sterile conditions. The diameter of the transplantable tumor in nude mice was determined with a vernier caliper, and the animals were divided into groups after the tumors were grown to 100-300 mm^3. Using the method of measuring the tumor diameter, dynamically observe the antitumor effects of tested materials. The diameter of the tumor was determined three times every week and the mouse weight was weighed at the same time. […] The solvent was intragastrically administrated as the control for continuous 9 times. Equal amount of control was administrated in the negative control group.
Tumor volume (TV) is calculated as: TV=½×a×b^2, wherein a and b respectively represent length and width.
Relative tumor volume (RTV) is calculated as: RTV=TVt/TV0, wherein TV0 is the tumor volume when administrated according to different cages and TVt is the tumor volume measured each time.
Relative tumor reproduction rate T/C (%) is calculated as follows:
TRTV: RTV in the treatment group; CRTV: RTV in the negative control group.
The test results used relative tumor reproduction rate T/C (%) as evaluating indicator of anti-tumor activity.

lung cancer cell A549 = assay: Effects on the adhesive ability of lung cancer cell A549; type: cell-based, human; conditions: Final concentration 1 x 1.0*10^(−5) mol/L
Procedure: 6. Effects of tested compounds on the adhesive ability of lung cancer cell A549
[Test materials] gelatin, CCK8, poly-lysine (PLL), A549 cell stains, 1640 medium containing 10% FBS
as §6, §2, §5
Dosing dosing cells without cell group (gelatin adhesive OD/PLL adhesion OD)−Dosing cell group (gelatin adhesive OD/PLL adhesion OD value)
Dosing dosing cells without cell group (gelatin adhesive OD/PLL adhesion OD value)

[6] = system: human umbilical vein endothelial cell HUVEC; assay: Lumen formation ability of HUVEC (Matrigel method); type: cell-based; conditions: Final concentration 1 x 1.0*10^(−5) mol/L
Text: 8. Inhibition effects of compounds on the lumen formation ability of human umbilical vein endothelial cell HUVEC
[Experimental principles] The human umbilical vein endothelial cells have ability of spontaneously forming blood lumen on Matrigel, which can be used to simulate the process of angiogenesis in vivo. We used Matrigel method to investigate the effects of the compound on the lumen formation ability of human umbilical vein endothelial cell HUVEC.
[Test materials] HUVEC (taking generation 3 to 5 cells for experiments after obtained from primary separation and cultured at 37 under the conditions of 5% CO2), Matrigel, cell culture medium M199.
as §1, §2, §5

[7] = system: human lung cancer A549 transplantation tumor; type: in vivo; conditions: BALB/cA nude mice; 60 mg/kg, 6 times every week for 3 weeks; Sorafenib oral 60 mg/kg
Procedure: 9. Tumor inhibition rate of tested compounds on human lung cancer A549 cell transplantation model in nude mice
as §7
(§8) The dosage of the compound was 60 mg/kg, 6 times every week for 3 weeks. […] Equal amount of normal saline was administrated in the negative control group. Observe for one week after administration.

Raf-1(truncated) = assay: Raf-1 inhibitor screening by chemoluminescence method; type: biochemical; conditions: Final concentration 1 x 1.0*10^−5 mol/ml
Text: 1. Inhibitory activity of the compound of the present invention on raf kinase
Raf-1 inhibitor screening by chemoluminescence method
Westernblot electrophoresis apparatus Rotaryshaker
Raf-1(truncated), Magnesium/ATP Cocktail, MEK1 unactive

[8] = system: human liver cancer cell bel-7402 transplantation tumor; type: in vivo; conditions: BALB/cA nude mice; 60 mg/kg, 6 times every week for 3 weeks; Sorafenib oral 60 mg/kg
Procedure: 10. Tumor inhibition rate of tested compounds on human liver cancer cell bel-7402 transplantation tumor model in nude mice
as §7, §8

mice S180 sarcoma = assay: Experimental therapeutic action on S180 sarcoma mice; conditions: mice S180 sarcoma, 60 mg/kg orally for 9 days
[9] = Final concentration 1 x 1.0*10^(−5) mol/L

Compound	Inhibition rate, growth of human lung cancer cell A549 [1, 9]	Inhibition rate, 95D cell strain migration [2]	Inhibition rate, growth of HUVEC cell [3]	Relative tumor reproduction rate T/C (%) on human renal carcinoma GCR-1 cell transplanted tumor model in nude mice [4]	Relative tumor reproduction rate T/C (%) [5]	Inhibition rate, adhesion ability of human lung cancer cell A549 (lung cancer cell A549)	Inhibition rate, lumen formation ability of HUVEC [6]	Relative tumor reproduction rate T/C (%) on human lung cancer A549 transplantation tumor in nude mice [7]	Inhibition rate % on raf kinase (Raf-1(truncated))	Relative tumor reproduction rate T/C (%) on human liver cancer cell bel-7402 transplantation tumor model in nude mice [8]	Tumor growth inhibition rate (%) (mice S180 sarcoma)	Inhibition rate, growth of human lung cancer cell A549 [1]
CNC(=O)c1cc(Oc2ccc(NC(=O)Nc3ccc(Br)c(C(F)(F)F)c3)cc2)c(C)[nH]1 [Compound 15, N-(4-bromo-3-(trifluoromethyl)phenyl)-N′-(4-(2-(N-methylaminoformoxyl)-4-(5-methyl-pyrryl)oxy)phenyl)urea]	72.17%	63.68%	38.17%	22.5%	85.2%	68.63%	68.64%	38.7%	35.5%	33.6%	56.7%	–
CNC(=O)c1ncc(Oc2ccc(NC(=O)Nc3ccc(Cl)c(C(F)(F)F)c3)cc2)c(OC)n1 [Compound 7, N-(4-chloro-3-(trifluoromethyl)phenyl)-N′-(4-(2-(N-methylaminoformoxyl)-5-(4-methoxypyrimidinyl)oxy)phenyl)urea]	45.30%	89.34%	8.30%	21.2%	40.1%	68.34%	60.34%	39.3%	99.1%	34.2%	21.5%	–
CNC(=O)c1cc(Oc2ccc(NC(=O)Nc3ccc(Cl)c(C(F)(F)F)c3)cc2)c(C)[nH]1 [Compound 13, N-(4-chloro-3-(trifluoromethyl)phenyl)-N′-(4-(2-(N-methylaminoformoxyl)-4-(5-methyl-pyrryl)oxy)phenyl)urea]	64.23%	65.45%	24.23%	28.3%	81.2%	63.39%	53.36%	38.4%	55.0%	29.8%	21.2%	–
CCc1ccc(NC(=O)Nc2ccc(Oc3ccnc4cc(F)c(OC)cc34)cc2)cc1C(F)(F)F [Compound 32, N-(4-ethyl-3-(trifluoromethyl)phenyl)-N′-(4-(4-(6-methoxyl-7-fluoro-quinolinyl)oxy)phenyl)urea]	–	66.92%	24.77%	32.5%	46.2%	64.73%	54.74%	35.3%	90.5%	31.4%	49.8%	45.76%
COc1ccc2nccc(Oc3ccc(NC(=O)Nc4ccc(F)c(C(F)(F)F)c4)cc3)c2c1 [Compound 17]	88.52%	90.52%	13.52%	11.1%	54.7%	97.50%	67.50%	7.3%	58.2%	12.5%	44.2%	–
COc1ccc2nccc(Oc3ccc(NC(=O)Nc4ccc(Cl)c(C(F)(F)F)c4)cc3)c2c1 [Compound 16]	89.71%	89.31%	10.71%	9.9%	55.2%	90.77%	80.79%	9.9%	62.1%	14.9%	33.6%	–
Cc1cc(Oc2ccc(NC(=O)Nc3ccc(Br)c(C(F)(F)F)c3)cc2)c[nH]1 [Compound 30, N-(4-bromo-3-(trifluoromethyl)phenyl)-N′-(4-(4-(2-methyl-pyrryl)oxy)phenyl)urea]	–	69.62%	25.46%	10.2%	79.5%	92.44%	90.66%	13.1%	16.8%	16.1%	55.2%	85.47%
Nc1ccc2c(Oc3ccc(NC(=O)Nc4ccc(Br)c(C(F)(F)F)c4)cc3)cncc2c1 [Compound 27, N-(4-bromo-3-(trifluoromethyl)phenyl)-N′-(4-(4-(7-amino-isoquinolyl)oxy)phenyl)urea]	–	59.77%	24.73%	26.2%	80.3%	94.77%	89.75%	36.3%	8.8%	29.2%	55.1%	64.71%
CCc1cc(NC(=O)Nc2ccc(Oc3ccnc4cc(F)c(C)cc34)cc2)ccc1Cl [Compound 33, N-(4-chloro-3-ethylphenyl)-N′-(4-(4-(6-methyl-7-fluoro-quinolinyl)oxy)phenyl)urea]	–	77.52%	17.50%	33.4%	39.9%	77.59%	67.51%	37.5%	92.3%	32.7%	55.3%	57.53%
